This data set is described as follows: Thermal stability and activity test of chelators (copper oxide removal test). It is filed as physicochemical. The following applies: 143 degrees F. for 5 minutes. As to the method: A fresh copper surface is prepared. The surface is gently heat oxidized. Next, the chelation quality was determined. About 0.0001 grams per drop (or 0.0029 g/ml) chelator effectively removed all the oxide form 1 cm sq in two minutes at a temperature of 98-99 degrees F. Then, the solution was diluted at 10% intervals to determine the point where it would not remove the oxide. There was a step wise decrease in chelation effect across the Cu test sample plate. A standard of chelation was graphed, see FIGS. 1 and 2.
A similar test is used for thermal stability and activity. […] Also, the identical test is used to determine batch activity. A crude field test is to put the chelator on a penny and heat to 98 degrees.

Each structure is given as a SMILES string.

Regarding `O=C(O)CN(CCN(CC(=O)O)CC(=O)O)CC(=O)O` [EDTA, ethylenediamine-N,N,N′,N′-tetraacetic acid], the “inactive (loss of chelator activity on heating)” value amounted to 100%.
With `O=S(=O)([O-])CC(S)CS.[Na+]` (centres unmarked) [DMPS, 2,3-dimercaptopropanesulphonate sodium] the figure was 100%.

The values above are taken from US20080260653A1, “Transdermal Delivery Systems and Transdermal Chelation Preparations” (priority 2004, published 2008).
